Results published in US20070049518A1, “Novel method of treatment of inflammatory skin conditions” (priority 2005, published 2007).
Several values for one entry are separate records, joined by “and”; a condition that tells them apart may be missing. Equal values may be shown once. Read-outs that look alike come from different tables or passages of the source.

Assays:
human MMP-2 = molecular target: T1, human MMP-2 (Homo sapiens, UniProt P08253); assay: MMP enzyme inhibition assay, MMP-2; format: biochemical; conditions: for IC50: pH 7.5, 37° C., 1 hour
T1 construct: purchased Calbiochem
T1 sequence (P08253 110-660): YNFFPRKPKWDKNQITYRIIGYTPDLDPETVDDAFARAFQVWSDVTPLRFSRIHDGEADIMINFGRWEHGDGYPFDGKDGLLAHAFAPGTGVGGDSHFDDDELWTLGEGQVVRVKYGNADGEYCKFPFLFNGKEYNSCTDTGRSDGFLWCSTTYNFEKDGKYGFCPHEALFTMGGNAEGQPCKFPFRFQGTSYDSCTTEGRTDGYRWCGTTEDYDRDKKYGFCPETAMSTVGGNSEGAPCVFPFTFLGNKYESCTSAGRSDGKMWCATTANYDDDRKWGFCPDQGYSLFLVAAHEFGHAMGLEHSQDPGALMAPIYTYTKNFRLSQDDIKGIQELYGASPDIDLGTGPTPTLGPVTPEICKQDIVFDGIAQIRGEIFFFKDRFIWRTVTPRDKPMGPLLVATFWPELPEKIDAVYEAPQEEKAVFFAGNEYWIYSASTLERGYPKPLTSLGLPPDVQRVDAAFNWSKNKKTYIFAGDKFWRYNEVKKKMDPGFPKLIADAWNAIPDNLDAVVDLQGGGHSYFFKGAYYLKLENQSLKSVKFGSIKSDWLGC

[1] = molecular target: T2, metalloprotease (aureolysin) activity in Staphylococcus aureus 8325-4 culture supernatants (Staphylococcus aureus, UniProt P81177); assay: Metalloprotease activity in S. aureus culture supernatants; format: biochemical
T2 construct: 4 μl S. aureus culture supernatant; endogenous in cells; host or cells: Staphylococcus aureus 8325-4 (culture supernatant)
Experimental: The culture was then centrifuged to remove the cells and the supernatant stored at −70° C. for subsequent use. […] Activity was expressed as the rate of increase in fluorescence as a function of time.

human MMP-1 = molecular target: T3, human MMP-1 (Homo sapiens, UniProt P03956); assay: MMP enzyme inhibition assay, MMP-1; format: biochemical; conditions: for IC50: pH 7.5, 37° C., 1 hour
T3 construct: purchased Calbiochem
T3 sequence (P03956 100-469): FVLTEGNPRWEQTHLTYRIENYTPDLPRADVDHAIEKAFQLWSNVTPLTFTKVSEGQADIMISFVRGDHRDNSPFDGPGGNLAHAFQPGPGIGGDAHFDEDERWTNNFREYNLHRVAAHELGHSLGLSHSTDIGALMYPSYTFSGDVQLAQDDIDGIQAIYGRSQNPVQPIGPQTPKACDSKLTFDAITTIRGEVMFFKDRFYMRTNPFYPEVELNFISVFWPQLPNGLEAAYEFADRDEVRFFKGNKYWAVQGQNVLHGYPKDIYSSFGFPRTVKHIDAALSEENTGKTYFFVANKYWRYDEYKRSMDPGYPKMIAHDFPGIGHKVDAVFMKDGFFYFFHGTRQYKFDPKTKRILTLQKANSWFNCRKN

human MMP-8 = molecular target: T4, human MMP-8 (Homo sapiens, UniProt P22894); assay: MMP enzyme inhibition assay, MMP-8; format: biochemical; conditions: for IC50: pH 7.5, 37° C., 1 hour
T4 construct: purchased Calbiochem

[2] = molecular target: T5, purified aureolysin type I (Staphylococcus aureus, UniProt P81177); assay: biochemical
T5 construct: purchased BioCentrum Ltd

[3] = molecular target: T6, purified aureolysin type II (Staphylococcus aureus, UniProt P81177); assay: Aureolysin enzyme inhibition assay, type II; format: biochemical
T6 sequence (P81177 1-509): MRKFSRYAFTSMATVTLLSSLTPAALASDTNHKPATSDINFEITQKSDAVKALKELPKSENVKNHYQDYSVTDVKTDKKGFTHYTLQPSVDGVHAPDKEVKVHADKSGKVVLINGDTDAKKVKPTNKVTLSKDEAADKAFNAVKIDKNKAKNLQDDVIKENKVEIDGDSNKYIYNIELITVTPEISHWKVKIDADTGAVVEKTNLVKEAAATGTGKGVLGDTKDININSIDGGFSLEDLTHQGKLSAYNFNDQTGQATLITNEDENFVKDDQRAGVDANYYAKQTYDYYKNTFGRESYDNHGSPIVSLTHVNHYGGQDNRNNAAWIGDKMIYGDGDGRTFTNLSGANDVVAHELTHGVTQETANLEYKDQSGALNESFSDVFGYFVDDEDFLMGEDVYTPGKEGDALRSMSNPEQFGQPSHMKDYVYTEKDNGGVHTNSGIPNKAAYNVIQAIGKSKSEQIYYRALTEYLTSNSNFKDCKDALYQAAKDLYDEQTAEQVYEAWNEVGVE

human MMP-9 = molecular target: T7, human MMP-9 (Homo sapiens, UniProt P14780); assay: MMP enzyme inhibition assay, MMP-9; format: biochemical; conditions: for IC50: pH 7.5, 37° C., 1 hour
T7 construct: purchased Calbiochem

aureolysin = aureolysin (Staphylococcus aureus, UniProt P81177); assay: Inhibition of aureolysin-mediated pro-uPA activation; conditions: for Urokinase activity after pro-uPA activation: Expt. 2, Compound 13 20 μM, pH 5.6
Source text: Under these conditions the extent of pro-uPA cleavage as assessed by uPA activity was directly proportional to the concentration of aureolysin in the assay.

[4] = system: S. aureus ATCC 27733 or 8325-4; assay: Milk agar plate assay of S. aureus protease activity; format: cell-based, Staphylococcus aureus; conditions: FIG. 2
Experimental: In a second assay for measuring S. aureus protease activity directly, S. aureus ATCC 27733 or 8325-4 was cultured on 10% (v/v) skimmed milk agar plates containing 2% (v/v) DMSO with or without compound. Compounds dissolved in DMSO were incorporated into the solid medium immediately prior to pouring.

[5] = system: Human skin epidermal keratinocytes; assay: Keratinocyte activation, IL-8 production; format: cell-based; conditions: 48 hours, aureolysin 50 μg/ml
Source text: Activated keratinocytes produce IL-8, a proinflammatory chemokine. Many bacterial products cause the activation of keratinocytes. Aureolysin may be evaluated for its effects on IL-8 production by keratinocytes. Human skin epidermal keratinocytes (TCS Cellworks) are maintained as per instructions. Proliferating cultures are trypsinised, harvested, treated with a trypsin inhibitor and resuspended in growth medium at approximately 50,000 cells/well, to provide confluent monolayers in 96 well plates. Cells are incubated overnight at 37° C. at 5% CO2 to allow recovery, the spent medium aspirated from the wells and replaced with fresh growth medium. The cells are incubated at 37° C. at 5% CO2 for a further 24 or 48 hours with aureolysin or buffer control.
The supernatants are removed from each well and the concentration of IL-8 is determined using a human IL-8 ELISA development kit from R&D systems (Catalog Number: DY208) using the manufacturers instructions.
In these experiments, the cells are incubated at 37° C. at 5% CO2 for 48 hours with aureolysin or buffer control. Poly IC and lipoteichoic acid (LTA), which stimulate IL-8 production in keratinocytes were used as positive controls.

S. aureus 8325-4 = assay: S. aureus growth by turbidometry in micro-titre plates; format: cell-based, Staphylococcus aureus; conditions: Staphylococcus aureus, 83254, read-out: IC50 value (50% decrease in terminal absorbance); overnight, absorbance 620 nm
Experimental: Tryptic soy broth (0.18 ml) containing S. aureus 8325-4 (approximately 10^5 cells) was mixed with 20 μl 20% (v/v) DMSO vehicle±compound in the wells of a flat-bottomed clear polystyrene 96-well micro-titre plate. The plate was incubated overnight at 37° C./220 rpm and the absorbance measured at 620 nm the following day.

[6] = pH 6.8, 37° C., 1 hour; read-out: IC50 value Aureolysin type II

T7 sequence (P14780 94-707): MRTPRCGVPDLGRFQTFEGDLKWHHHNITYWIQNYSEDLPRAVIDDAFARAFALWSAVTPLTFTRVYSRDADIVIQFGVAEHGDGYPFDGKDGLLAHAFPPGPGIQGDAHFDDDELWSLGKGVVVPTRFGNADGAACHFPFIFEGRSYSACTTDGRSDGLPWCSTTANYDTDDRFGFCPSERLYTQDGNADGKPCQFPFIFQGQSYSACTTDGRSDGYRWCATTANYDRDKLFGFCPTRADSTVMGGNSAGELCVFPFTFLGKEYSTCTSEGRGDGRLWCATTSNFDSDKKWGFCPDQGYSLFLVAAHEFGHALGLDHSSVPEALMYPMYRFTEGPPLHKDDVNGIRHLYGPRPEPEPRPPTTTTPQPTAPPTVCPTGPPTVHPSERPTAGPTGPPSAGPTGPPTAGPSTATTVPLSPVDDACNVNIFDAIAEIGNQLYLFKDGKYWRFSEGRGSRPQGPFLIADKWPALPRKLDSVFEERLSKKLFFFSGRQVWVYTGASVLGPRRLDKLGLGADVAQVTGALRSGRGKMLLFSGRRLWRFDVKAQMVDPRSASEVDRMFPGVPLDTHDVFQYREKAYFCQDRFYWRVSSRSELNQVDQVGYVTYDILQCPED
T4 sequence (P22894 101-467): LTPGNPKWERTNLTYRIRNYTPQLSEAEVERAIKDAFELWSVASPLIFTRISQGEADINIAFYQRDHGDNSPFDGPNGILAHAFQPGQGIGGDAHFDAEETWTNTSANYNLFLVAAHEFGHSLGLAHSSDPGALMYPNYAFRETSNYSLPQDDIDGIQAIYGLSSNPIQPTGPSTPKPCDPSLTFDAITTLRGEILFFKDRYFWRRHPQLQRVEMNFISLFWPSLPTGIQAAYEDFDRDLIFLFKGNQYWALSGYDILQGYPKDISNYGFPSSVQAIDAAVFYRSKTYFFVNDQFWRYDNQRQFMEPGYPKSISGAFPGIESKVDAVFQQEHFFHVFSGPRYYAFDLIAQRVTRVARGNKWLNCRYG

## CO[C@H](C(=O)NO)[C@@H](CC(C)C)C(=O)N[C@H](C(=O)Nc1ccccn1)C(C)(C)C [Compound 7, solimastat]
Human MMP-2
  IC50: 3.2 nM
[1]
  IC50: 4500 nM
Human MMP-1
  IC50: 3.3 nM
Human MMP-8
  IC50: 1.7 nM
[2]
  IC50: 2200 nM
[3]; [6]
  IC50: 3500 nM
Human MMP-9
  IC50: 5.1 nM

## CNC(=O)[C@H](Cc1c[nH]c2ccccc12)NC(=O)[C@@H](CC(=O)NO)CC(C)C [Compound 1, ilomastat]
[1]
  IC50: 570 nM
[2]
  IC50: 260 nM
[3]; [6]
  IC50: 430 nM

## CC(C)C[C@H](NP(=O)(O)O[C@@H]1O[C@@H](C)[C@H](O)[C@@H](O)[C@H]1O)C(=O)N[C@@H](Cc1c[nH]c2ccccc12)C(=O)O [Compound 15, phosphoramidon]
Human MMP-2; @ 2.7 μM
  inhibition at 2.7 µM: 0%
[1]
  IC50: 3300 nM
Human MMP-1; @ 2.7 μM
  inhibition at 2.7 µM: 0%
Human MMP-8; @ 2.7 μM
  inhibition at 2.7 µM: 0%
[2]
  IC50: 2800 nM
[3]; [6]
  IC50: 2300 nM
Human MMP-9; @ 2.7 μM
  inhibition at 2.7 µM: 0%

## CNC(=O)[C@H](CCc1ccccc1)NC(=O)[C@@H](CC(=O)NO)CC(C)C [Compound 17, (R)—N4-hydroxy-2-isobutyl-N1-((S)-1-(methylamino)-1-oxo-4-phenylbutan-2-yl)succinamide]
Human MMP-2
  IC50: 2.4 nM
[1]
  IC50: 2300 nM
Human MMP-1
  IC50: 17 nM
Human MMP-8
  IC50: 4.4 nM
[2]
  IC50: 1200 nM
[3]; [6]
  IC50: 2300 nM
Human MMP-9
  IC50: 5.9 nM

## COc1ccc(S(=O)(=O)N(CC(=O)NO)CC(C)C)cc1 [Compound 14]
Human MMP-2
  IC50: 4.6 nM
[1]
  IC50: 3600 nM
Human MMP-8
  IC50: 21 nM
[2]
  IC50: 1000 nM
[3]; read-out: IC50 value Aureolysin type II; pH 6.8, 37° C., 1 hour
  IC50: 2500 nM
Human MMP-9
  IC50: 10 nM

## CC(C)C[C@@H](C(=O)N[C@H](C(=O)Nc1ccccn1)C(C)(C)C)[C@H](O)C(=O)NO [Compound 9]
Human MMP-2
  IC50: 1.8 nM
[1]
  IC50: 2900 nM
Human MMP-1
  IC50: 3.1 nM
Human MMP-8
  IC50: 1.7 nM
[2]
  IC50: 1500 nM
[3]; [6]
  IC50: 2400 nM
Human MMP-9
  IC50: 4.1 nM

## CNC(=O)C(CCc1ccccc1)NC(=O)C(CC(=O)NO)CC(C)C (stereo not shown) [Compound 13]
aureolysin; aureolysin 0 μg/ml
  Urokinase activity after pro-uPA activation: 0.11 A405/0.5 h/μg
aureolysin; aureolysin 0.1 μg/ml
  Urokinase activity after pro-uPA activation: 0.36 A405/0.5 h/μg
aureolysin; aureolysin 0.3 μg/ml
  Urokinase activity after pro-uPA activation: 0.52 A405/0.5 h/μg
aureolysin; aureolysin 0.8 μg/ml
  Urokinase activity after pro-uPA activation: 0.96 A405/0.5 h/μg
aureolysin; pH 5.6, read-out: inhibition of aureolysin activation of pro-uPA
  inhibition at 20 µM: ≥ 82%
Human MMP-2
  IC50: 1.1 nM
[1]
  IC50: 690 nM
Human MMP-1
  IC50: 5.6 nM
Human MMP-8
  IC50: 1.6 nM
[2]
  IC50: 330 nM
[3]; [6]
  IC50: 690 nM
Human MMP-9
  IC50: 1.9 nM

## CNC(=O)[C@@H](NC(=O)[C@H](CC(C)C)[C@H](O)C(=O)NO)C(C)(C)C [Compound 3, marimastat]
[4]
  inhibition of proteolytic activity, zone of clearance of milk proteins (in words): inhibition of proteolytic activity

## lipoteichoic acid [LTA]
[5]
  IL-8 ± SE: 454 pg/mL and 454 ± 61.0 pg/mL

## CC(C)C[C@@H](C(=O)N[C@H](C(=O)N(C)C)C(C)(C)C)[C@H](O)C(=O)NO [Compound 5]
Human MMP-2
  IC50: 7.7 nM
[1]
  IC50: 44000 nM
Human MMP-1
  IC50: 11 nM
Human MMP-8
  IC50: 3.9 nM
[2]
  IC50: 27000 nM
[3]; [6]
  IC50: 41000 nM
Human MMP-9
  IC50: 30 nM

## CCCCC[C@H](CC(=O)NO)C(=O)N[C@H](C(=O)N1CCC[C@H]1CO)C(C)C [Actinonin, actinonin, reference compound]
S. aureus 8325-4
  IC50: 2600 nM

## CNC(=O)[C@H](CCc1ccccc1)NC(=O)[C@H](CC(=O)NO)CC(C)C [Compound 16, (S)—N4-hydroxy-2-isobutyl-N1-((S)-1-(methylamino)-1-oxo-4-phenylbutan-2-yl)succinamide]
Human MMP-2
  IC50: 2100 nM
[1]
  IC50: 95 nM
Human MMP-1
  IC50: 6200 nM
Human MMP-8
  IC50: 1600 nM
[2]
  IC50: 57 nM
[3]; [6]
  IC50: 93 nM
Human MMP-9
  IC50: 2000 nM

## Poly IC
[5]
  IL-8 ± SE: 282 pg/mL and 282 ± 0.9 pg/mL
